From ChEMBL document CHEMBL4118071, “Discovery of unsymmetrical aromatic disulfides as novel inhibitors of SARS-CoV main protease: Chemical synthesis, biological evaluation, molecular docking and 3D-QSAR study” (Eur J Med Chem, 2017) come the findings set out here.

The source made the active and inactive calls. The rule behind the calls is not given here.

The subject of assay [1] is Severe acute respiratory syndrome-related coronavirus. The conditions noted are these: 2 to 4 uM.
For assay [2] the test system is unchanged.
Assay [3] can be described thus: Inhibition of SARS coronavirus Mpro using MCA-AVLQSGFR-Lys(Dnp)-Lys-NH as substrate by fluorescence assay. On the set-up: species or system Severe acute respiratory syndrome-related coronavirus.

Consider `Brc1ccc(SSc2ncccn2)cc1`, for which the inhibition entry in assay [1] is “Active”. Regarding `Clc1ccc(SSc2nnco2)cc1`, in assay [2], the alphaKi was determined as 0.2 µM. What is called Ki is the equilibrium dissociation constant of an inhibitor or competing ligand from its target. Read a high Ki as lower affinity. Turning to `CCOC(=O)/C=C/[C@H](C[C@@H]1CCNC1=O)NC(=O)[C@H](CCC(C)C)NC(=O)[C@@H](NC(=O)[C@@H](NC(=O)c1ccco1)C(C)C)C(C)C`, the inhibition constant (Ki) in assay [3] came out at 6.7 µM.
